Source: patent US20240216395A1, “19-NOR C3,3-DISUBSTITUTED C21 -N-PYRAZOLYL STEROID FOR USE IN TREATING MAJOR DEPRESSIVE DISORDER AND […]” (priority 2021, published 2024)

Tested on: nondependent, recreational users of CNS depressants
Experiment: Abuse potential study, dose selection phase: TEAEs
Type: in vivo, human
Protocol: After a screening period of up to 21 days, eligible participants were randomized 3:1 to receive single escalating doses of Compound (1) (60, 80, or 90 mg) or matching placebo in 3 separate cohorts; Compound (1) was administered during 4 days of inpatient administration (FIG. 30A). Sentinel dosing was employed for each cohort, with one participant randomized to receive Compound (1) and one to receive placebo on Day 1. The remaining 6 participants (Compound (1), 5; placebo, 1) were dosed approximately 24 hours later after monitoring the safety and tolerability endpoints. Dose-escalation cohorts were separated by at least 7 days. If a dose was not well tolerated based on the safety data, doses in subsequent cohorts were to be modified, and Compound (1) dose was not allowed to exceed 90 mg. Participants underwent a 1-day, follow-up visit 7 (±2) days after the end of the treatment and were not permitted to participate in the main study.
For the first part, dose selection, endpoints included the observer-rated Modified Observer's Assessment of Alertness/Sedation (MOAA/S) scores along with safety and tolerability endpoints which included the Columbia-Suicide Severity Rating Scale (C-SSRS), frequency and severity of adverse events (AE) and serious adverse events (SAEs), and changes from baseline in clinical laboratory assessments, vital signs, and electrocardiogram (ECG).
The dose selection safety set included all participants who received 1 dose of Compound (1). The main study qualification safety set included all participants who received ≥1 dose of alprazolam. For the treatment phase, the randomized set included all participants who were randomized and the safety set included all participants who received ≥1 dose of Compound (1) or alprazolam. The completer set included all participants in the randomized set who completed all treatment periods, had sufficient data for evaluation of the primary endpoint, and had ≥1 observation within 2 hours of Tmax for each treatment for Drug Liking VAS scores. […] The PK set included all participants in the treatment phase who received 1 dose of Compound (1) and had 1 PK sample after dosing.

Structure (SMILES): C[C@@]1(O)CC[C@H]2[C@H](CC[C@@H]3[C@@H]2CC[C@]2(C)[C@@H](C(=O)Cn4cc(C#N)cn4)CC[C@@H]32)C1 [Compound (1), 1-(2-((3R,5R,8R,9R,10S,13S,14S,17S)-3-hydroxy-3,13-dimethylhexadecahydro-1H-cyclopenta[a]phenanthren-17-yl)-2-oxoethyl)-1H-pyrazole-4-carbonitrile]
- Any TEAE (60 mg (n = 6)): 5 (83.3) n (%)
- Asthenopia (TEAE) (60 mg (n = 6)): 0 n (%)
- Blood bilirubin increased (TEAE) (60 mg (n = 6)): 0 n (%)
- Disturbance in attention (TEAE) (60 mg (n = 6)): 0 n (%)
- Dizziness postural (TEAE) (60 mg (n = 6)): 1 (16.7) n (%)
- Euphoric mood (TEAE) (60 mg (n = 6)): 0 n (%)
- Feeling abnormal (TEAE) (60 mg (n = 6)): 0 n (%)
- Feeling hot (TEAE) (60 mg (n = 6)): 0 n (%)
- Feeling of relaxation (TEAE) (60 mg (n = 6)): 0 n (%)
- Headache (TEAE) (60 mg (n = 6)): 1 (16.7) n (%)
- Hunger (TEAE) (60 mg (n = 6)): 0 n (%)
- Hyperhidrosis (TEAE) (60 mg (n = 6)): 0 n (%)
- Irritability (TEAE) (60 mg (n = 6)): 0 n (%)
- Lacrimation increased (TEAE) (60 mg (n = 6)): 0 n (%)
- Mild TEAE (60 mg (n = 6)): 5 (83.3) n (%)
- Moderate TEAE (60 mg (n = 6)): 0 n (%)
- Orthostatic HR response increase (TEAE) (60 mg (n = 6)): 1 (16.7) n (%)
- Paresthesia (TEAE) (60 mg (n = 6)): 0 n (%)
- Somnolence (TEAE) (60 mg (n = 6)): 4 (66.7) n (%)
- Toothache (TEAE) (60 mg (n = 6)): 0 n (%)
- Tremor (TEAE) (60 mg (n = 6)): 0 n (%)
- Vision blurred (TEAE) (60 mg (n = 6)): 0 n (%)
- Yawning (TEAE) (60 mg (n = 6)): 0 n (%)
- Any TEAE (80 mg (n = 6)): 5 (83.3) n (%)
- Asthenopia (TEAE) (80 mg (n = 6)): 1 (16.7) n (%)
- Blood bilirubin increased (TEAE) (80 mg (n = 6)): 0 n (%)
- Disturbance in attention (TEAE) (80 mg (n = 6)): 1 (16.7) n (%)
- Dizziness postural (TEAE) (80 mg (n = 6)): 2 (33.3) n (%)
- Euphoric mood (TEAE) (80 mg (n = 6)): 1 (16.7) n (%)
- Feeling abnormal (TEAE) (80 mg (n = 6)): 0 n (%)
- Feeling hot (TEAE) (80 mg (n = 6)): 0 n (%)
- Feeling of relaxation (TEAE) (80 mg (n = 6)): 2 (33.3) n (%)
- Headache (TEAE) (80 mg (n = 6)): 0 n (%)
- Hunger (TEAE) (80 mg (n = 6)): 0 n (%)
- Hyperhidrosis (TEAE) (80 mg (n = 6)): 0 n (%)
- Irritability (TEAE) (80 mg (n = 6)): 1 (16.7) n (%)
- Lacrimation increased (TEAE) (80 mg (n = 6)): 0 n (%)
- Mild TEAE (80 mg (n = 6)): 5 (83.3) n (%)
- Moderate TEAE (80 mg (n = 6)): 0 n (%)
- Orthostatic HR response increase (TEAE) (80 mg (n = 6)): 0 n (%)
- Paresthesia (TEAE) (80 mg (n = 6)): 1 (16.7) n (%)
- Somnolence (TEAE) (80 mg (n = 6)): 5 (83.3) n (%)
- Toothache (TEAE) (80 mg (n = 6)): 0 n (%)
- Tremor (TEAE) (80 mg (n = 6)): 0 n (%)
- Vision blurred (TEAE) (80 mg (n = 6)): 1 (16.7) n (%)
- Yawning (TEAE) (80 mg (n = 6)): 0 n (%)
- Moderate TEAEs (90 mg): one instance of somnolence
- Any TEAE (90 mg (n = 6)): 6 (100) n (%)
- Asthenopia (TEAE) (90 mg (n = 6)): 0 n (%)
- Blood bilirubin increased (TEAE) (90 mg (n = 6)): 0 n (%)
- Disturbance in attention (TEAE) (90 mg (n = 6)): 0 n (%)
- Dizziness postural (TEAE) (90 mg (n = 6)): 0 n (%)
- Euphoric mood (TEAE) (90 mg (n = 6)): 4 (66.7) n (%)
- Feeling abnormal (TEAE) (90 mg (n = 6)): 1 (16.7) n (%)
- Feeling hot (TEAE) (90 mg (n = 6)): 0 n (%)
- Feeling of relaxation (TEAE) (90 mg (n = 6)): 1 (16.7) n (%)
- Headache (TEAE) (90 mg (n = 6)): 0 n (%)
- Hunger (TEAE) (90 mg (n = 6)): 0 n (%)
- Hyperhidrosis (TEAE) (90 mg (n = 6)): 1 (16.7) n (%)
- Irritability (TEAE) (90 mg (n = 6)): 1 (16.7) n (%)
- Lacrimation increased (TEAE) (90 mg (n = 6)): 0 n (%)
- Mild TEAE (90 mg (n = 6)): 5 (83.3) n (%)
- Moderate TEAE (90 mg (n = 6)): 1 (16.7) n (%)
- Orthostatic HR response increase (TEAE) (90 mg (n = 6)): 0 n (%)
- Paresthesia (TEAE) (90 mg (n = 6)): 0 n (%)
- Somnolence (TEAE) (90 mg (n = 6)): 4 (66.7) n (%)
- Toothache (TEAE) (90 mg (n = 6)): 0 n (%)
- Tremor (TEAE) (90 mg (n = 6)): 1 (16.7) n (%)
- Vision blurred (TEAE) (90 mg (n = 6)): 0 n (%)
- Yawning (TEAE) (90 mg (n = 6)): 1 (16.7) n (%)
- Blood bilirubin increased (TEAE) (All doses (n = 18)): 0 n
- Feeling hot (TEAE) (All doses (n = 18)): 0 n
- Hunger (TEAE) (All doses (n = 18)): 0 n
- Lacrimation increased (TEAE) (All doses (n = 18)): 0 n
- Toothache (TEAE) (All doses (n = 18)): 0 n
